This test has as its system 699152-130-R-J1-PDC complex spheroid growth. Nature of the test: Anticancer human tumor 699152-130-R-J1-PDC patient-derived pancreatic carcinoma cell line growth inhibition [AhR]. The settings on record: for viability, T/C: stronger effect = lower value. The essentials: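 Spheroids combined tumor cells with HUVEC endothelial cells and human MSCs as stroma. AhR antagonists were paired with standard or investigational drugs, each dosed in half-log steps down from near clinical Cmax, or from 10 microM where Cmax was unknown.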

Where [1] appears, read: curve of first compound, second compound 0.1 µM.
Setting [2] is: curve of first compound, second compound 0.316 µM.
The mark [3] stands for this setting: curve of first compound, second compound 1 µM.
Where [4] appears, read: curve of first compound, second compound 3.16 µM.
Setting [5] is: curve of first compound, second compound 10 µM.
Setting [6] is: second compound 0.1 µM, first compound 0.0316 µM.
The mark [7] stands for this setting: second compound 0.1 µM, first compound 0.1 µM.
The mark [8] stands for this setting: second compound 0.1 µM, first compound 0.316 µM.
The mark [9] stands for this setting: second compound 0.1 µM, first compound 1 µM.
[10] abbreviates: second compound 0.1 µM, first compound 3.16 µM.
The mark [11] stands for this setting: second compound 0.1 µM, first compound 10 µM.
Where [12] appears, read: second compound 0.316 µM, first compound 0.0316 µM.
The mark [13] stands for this setting: second compound 0.316 µM, first compound 0.1 µM.
Setting [14] is: second compound 0.316 µM, first compound 0.316 µM.
Where [15] appears, read: second compound 0.316 µM, first compound 1 µM.
[16] abbreviates: second compound 0.316 µM, first compound 3.16 µM.
[17] abbreviates: second compound 0.316 µM, first compound 10 µM.
Setting [18] is: second compound 1 µM, first compound 0.0316 µM.
[19] abbreviates: second compound 1 µM, first compound 0.1 µM.
The mark [20] stands for this setting: second compound 1 µM, first compound 0.316 µM.
Setting [21] is: second compound 1 µM, first compound 1 µM.
The mark [22] stands for this setting: second compound 1 µM, first compound 3.16 µM.
[23] abbreviates: second compound 1 µM, first compound 10 µM.
The mark [24] stands for this setting: second compound 3.16 µM, first compound 0.0316 µM.
[25] abbreviates: second compound 3.16 µM, first compound 0.1 µM.
The mark [26] stands for this setting: second compound 3.16 µM, first compound 0.316 µM.
[27] abbreviates: second compound 3.16 µM, first compound 1 µM.
Setting [28] is: second compound 3.16 µM, first compound 3.16 µM.
Setting [29] is: second compound 3.16 µM, first compound 10 µM.
Setting [30] is: second compound 10 µM, first compound 0.0316 µM.
The mark [31] stands for this setting: second compound 10 µM, first compound 0.1 µM.
The mark [32] stands for this setting: second compound 10 µM, first compound 0.316 µM.
[33] abbreviates: second compound 10 µM, first compound 1 µM.
Where [34] appears, read: second compound 10 µM, first compound 3.16 µM.
The mark [35] stands for this setting: second compound 10 µM, first compound 10 µM.

pIC50: −log10 of the molar value. Several values for one entry are separate records, joined by “and”; a condition that tells them apart may be missing. Equal entries are not always repeated.

Broadly, the viability, T/C is the ratio of treated to control. In general, pIC50 refers to −log10 of the IC50, conventionally taken in molar units.
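Further: compound exposure lasted 7 days after spheroids had grown for 3 days.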

For `CC1COCCN1c1cc(-c2ccnn2C)c2ccnc(-c3ccn[nH]3)c2n1` (configuration not stated), the viability, T/C by setting is: (compound 0.00316 µM) 106% and 92.5% and 103%; (compound 0.01 µM) 106% and 96.9% and 109%; (compound 0.0316 µM) 95.6% and 95.9% and 92.5%; (compound 0.1 µM) 85.9% and 90.6% and 95.9%; (compound 0.316 µM) 72.5% and 84.8% and 77.6%; (compound 1 µM) 59.9% and 58.5% and 61.5%. The negative logarithm of the IC50 (pIC50) (curve of compound) was below 6.00.
On to `Nc1ccccc1NC(=O)c1ccc(CNC(=O)OCc2cccnc2)cc1`, for which the viability, T/C by setting is: (compound 0.0316 µM) 91.4% and 87.2% and 106%; (compound 0.1 µM) 96.6% and 89.1% and 109%; (compound 0.316 µM) 96.1% and 93.6% and 116%; (compound 1 µM) 97.1% and 103% and 95%; (compound 3.16 µM) 76.1% and 86% and 93.4%; (compound 10 µM) 39.1% and 38.4% and 42.8%. Moreover, the pIC50 (curve of compound) was 5.15 and 5.12 and 5.07.
In the case of `Nc1ccn(C2OC(CO)C(O)C2(F)F)c(=O)n1` (configuration not stated), the viability, T/C runs as follows: (compound 0.0316 µM) 74.1% and 75.2% and 60.5%; (compound 0.1 µM) 65.7% and 65.9% and 56.8%; (compound 0.316 µM) 48.5% and 56.9% and 47.4%; (compound 1 µM) 51.8% and 50.9% and 45.2%; (compound 3.16 µM) 42.4% and 53.5% and 42.6%; (compound 10 µM) 39.8% and 48.5% and 36.5%.
With `CCN(c1cc(-c2ccc(CN3CCOCC3)cc2)cc(C(=O)NCc2c(C)cc(C)[nH]c2=O)c1C)C1CCOCC1`, the viability, T/C (compound 0.00949 µM) is 101% and 104% and 103%; the viability, T/C (compound 0.03 µM) was 95.7% and 110% and 98.5%; the viability, T/C (compound 0.0949 µM) was 111% and 87.2% and 115%; the viability, T/C (compound 0.3 µM) is 93.7% and 115% and 95%; the viability, T/C (compound 0.949 µM) is 107% and 114% and 113%; the viability, T/C (compound 3 µM) was 105% and 111% and 113%. The pIC50 (curve of compound) is below 5.52.
Consider `Nc1ccn(C2OC(CO)C(O)C2(F)F)c(=O)n1` (configuration not stated) + Cc1cncc(-c2nc(NCCc3c[nH]c4ccccc34)c3ncn(C(C)C)c3n2)c1, for which the pIC50 was 5.91 under setting [1]; 5.89 under setting [2]; 5.60 under setting [3]; 6.06 under setting [4]; above 7.50 under setting [5]. Also, the viability, T/C reads like this: under setting [6], 76.3%; under setting [7], 69.2%; under setting [8], 62.3%; under setting [9], 49.4%; under setting [10], 46.6%; under setting [11], 42.8%. In addition, the viability, T/C was 81.3% under setting [12]; 63.6% under setting [13]; 56.8% under setting [14]; 56.1% under setting [15]; 45.3% under setting [16]; 40.6% under setting [17]. Moreover, the viability, T/C by setting is: under setting [18], 72.6%; under setting [19], 67.9%; under setting [20], 58.6%; under setting [21], 53.8%; under setting [22], 50.5%; under setting [23], 43.8%. Also, the viability, T/C is 74.7% under setting [24]; 71.1% under setting [25]; 55.6% under setting [26]; 50.8% under setting [27]; 45.4% under setting [28]; 49.8% under setting [29]. The viability, T/C was 47.8% under setting [30]; 50.9% under setting [31]; 40.5% under setting [32]; 46% under setting [33]; 39.4% under setting [34]; 35.5% under setting [35].
As for `COc1cc(C2c3cc4c(cc3C(OC3OC5COC(C)OC5C(O)C3O)C3COC(=O)C23)OCO4)cc(OC)c1O` (configuration not stated) + Cc1cncc(-c2nc(NCCc3c[nH]c4ccccc34)c3ncn(C(C)C)c3n2)c1, the pIC50 by setting is: under setting [1], below 5.00; under setting [2], 5.12; under setting [3], 5.04; under setting [4], 5.57; under setting [5], above 7.50. Further, the viability, T/C is, setting by setting: under setting [6], 106%; under setting [7], 98%; under setting [8], 70.1%; under setting [9], 70.3%; under setting [10], 58%; under setting [11], 52.6%. Moreover, the viability, T/C by setting is: under setting [12], 104%; under setting [13], 89.5%; under setting [14], 80.2%; under setting [15], 67.4%; under setting [16], 58.9%; under setting [17], 46.8%. The viability, T/C under setting [18] is 99.6%; the viability, T/C under setting [19] is 97.2%; the viability, T/C under setting [20] is 74.9%; the viability, T/C under setting [21] is 77.5%; the viability, T/C under setting [22] is 63.6%; the viability, T/C under setting [23] is 47.4%. Also, the viability, T/C runs as follows: under setting [24], 106%; under setting [25], 91.3%; under setting [26], 70.1%; under setting [27], 60.6%; under setting [28], 48.5%; under setting [29], 41.7%. In addition, the viability, T/C is 0.93% under setting [30]; 1.13% under setting [31]; 1.96% under setting [32]; 1.2% under setting [33]; 1.07% under setting [34]; 4.92% under setting [35].
Take `CC[C@@]1(O)C(=O)OCc2c1cc1n(c2=O)Cc2cc3c(CN(C)C)c(O)ccc3nc2-1` + CC(CO)NC(=O)c1cc(-c2ccc(Cl)cc2)nn(-c2cnn(C)c2)c1=O: the pIC50 runs as follows: under setting [1], below 7.00; under setting [2], below 7.00; under setting [3], below 7.00; under setting [4], below 7.00; under setting [5], below 7.00. In addition, the viability, T/C is 101% (second compound 0.1 µM, first compound 0.000316 µM); 102% (second compound 0.1 µM, first compound 0.001 µM); 112% (second compound 0.1 µM, first compound 0.00316 µM); 98.6% (second compound 0.1 µM, first compound 0.01 µM); 86.7% under setting [6]; 64.7% under setting [7]. Further, the viability, T/C reads like this: (second compound 0.316 µM, first compound 0.000316 µM) 94.1%; (second compound 0.316 µM, first compound 0.001 µM) 107%; (second compound 0.316 µM, first compound 0.00316 µM) 93%; (second compound 0.316 µM, first compound 0.01 µM) 83.5%; under setting [12], 76.3%; under setting [13], 60.3%. Also, the viability, T/C reads like this: (second compound 1 µM, first compound 0.000316 µM) 96.8%; (second compound 1 µM, first compound 0.001 µM) 108%; (second compound 1 µM, first compound 0.00316 µM) 92.5%; (second compound 1 µM, first compound 0.01 µM) 79.4%; under setting [18], 83.6%; under setting [19], 62.5%. Further, the viability, T/C was 89.4% (second compound 3.16 µM, first compound 0.000316 µM); 102% (second compound 3.16 µM, first compound 0.001 µM); 93.7% (second compound 3.16 µM, first compound 0.00316 µM); 84% (second compound 3.16 µM, first compound 0.01 µM); 71.8% under setting [24]; 60.7% under setting [25]. For the same molecule, the viability, T/C is 102% (second compound 10 µM, first compound 0.000316 µM); 103% (second compound 10 µM, first compound 0.001 µM); 86.3% (second compound 10 µM, first compound 0.00316 µM); 80.7% (second compound 10 µM, first compound 0.01 µM); 72.3% under setting [30]; 57% under setting [31].
